Values of other authors in US20200237920A1, “STABLE INJECTABLE PHARMACEUTICAL COMPOSITION OF NEUROKININ 1 RECEPTOR ANTAGONIST AND PROCESS FOR PREPARATION THEREOF” (PHARMATHEN S.A., priority 2012, published 2020).

What was measured:
[1] = tested on: serotonin, dopamine or corticosteroid receptors

affinity for serotonin, dopamine or corticosteroid receptors (in words) [1] | SMILES | solubility in water (in words)
little or no affinity | C[C@@H](O[C@H]1OCCN(Cc2n[nH]c(=O)[nH]2)[C@H]1c1ccc(F)cc1)c1cc(C(F)(F)F)cc(C(F)(F)F)c1 [Aprepitant] | –
– | CNC[C@H](O)[C@@H](O)[C@H](O)[C@H](O)CO.CNC[C@H](O)[C@@H](O)[C@H](O)[C@H](O)CO.C[C@@H](O[C@H]1OCCN(Cc2nn(P(=O)(O)O)c(=O)[nH]2)[C@H]1c1ccc(F)cc1)c1cc(C(F)(F)F)cc(C(F)(F)F)c1 [Fosaprepitant Dimeglumine] | freely soluble in water
